One may read the inhibition as the relative decrease from the control value, in per cent.

These results are taken from ChEMBL document CHEMBL4190187, “Discovery of pyrazolopyrimidine derivatives as novel inhibitors of ataxia telangiectasia and rad3 related protein (ATR)” (Bioorg Med Chem Lett, 2017).

Molecules are shown by their SMILES.

Series [1] deals with Myosin light chain kinase 2, skeletal/cardiac muscle (Homo sapiens) (UniProt Q9H1R3). The experiment in a line: Inhibition of full-length recombinant human MYLK2 at 1 uM using KKLNRTLSFAEPG as substrate after 40 mins in presence of [gamma-33P]ATP by scintillation counting method.
Chain of Myosin light chain kinase 2, skeletal/cardiac muscle (Homo sapiens) (Q9H1R3 whole entry): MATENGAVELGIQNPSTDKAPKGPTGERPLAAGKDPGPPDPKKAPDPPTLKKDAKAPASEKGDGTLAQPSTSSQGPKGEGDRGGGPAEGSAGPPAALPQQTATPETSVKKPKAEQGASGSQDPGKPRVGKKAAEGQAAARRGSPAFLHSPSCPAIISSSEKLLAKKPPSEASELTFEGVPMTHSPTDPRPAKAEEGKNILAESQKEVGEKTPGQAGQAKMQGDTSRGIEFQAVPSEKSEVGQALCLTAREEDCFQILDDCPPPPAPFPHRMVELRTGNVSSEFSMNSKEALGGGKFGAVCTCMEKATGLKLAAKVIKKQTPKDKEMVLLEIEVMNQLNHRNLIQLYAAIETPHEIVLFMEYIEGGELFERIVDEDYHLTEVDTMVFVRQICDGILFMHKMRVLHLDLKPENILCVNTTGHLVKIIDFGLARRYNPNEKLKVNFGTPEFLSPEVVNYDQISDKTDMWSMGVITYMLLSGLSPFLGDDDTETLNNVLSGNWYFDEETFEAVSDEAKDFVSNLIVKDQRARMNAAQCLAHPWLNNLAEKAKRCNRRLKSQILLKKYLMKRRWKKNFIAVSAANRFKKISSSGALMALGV
The target of series [2] is Mast/stem cell growth factor receptor Kit (Homo sapiens) (UniProt P10721). The experiment in a line: Inhibition of recombinant human cKit (544 to end residues) at 1 uM using poly(Glu,Tyr) 4:1 as substrate after 40 mins in presence of [gamma-33P]ATP by scintillation counting method.
Chain of Mast/stem cell growth factor receptor Kit (Homo sapiens) (P10721 whole entry): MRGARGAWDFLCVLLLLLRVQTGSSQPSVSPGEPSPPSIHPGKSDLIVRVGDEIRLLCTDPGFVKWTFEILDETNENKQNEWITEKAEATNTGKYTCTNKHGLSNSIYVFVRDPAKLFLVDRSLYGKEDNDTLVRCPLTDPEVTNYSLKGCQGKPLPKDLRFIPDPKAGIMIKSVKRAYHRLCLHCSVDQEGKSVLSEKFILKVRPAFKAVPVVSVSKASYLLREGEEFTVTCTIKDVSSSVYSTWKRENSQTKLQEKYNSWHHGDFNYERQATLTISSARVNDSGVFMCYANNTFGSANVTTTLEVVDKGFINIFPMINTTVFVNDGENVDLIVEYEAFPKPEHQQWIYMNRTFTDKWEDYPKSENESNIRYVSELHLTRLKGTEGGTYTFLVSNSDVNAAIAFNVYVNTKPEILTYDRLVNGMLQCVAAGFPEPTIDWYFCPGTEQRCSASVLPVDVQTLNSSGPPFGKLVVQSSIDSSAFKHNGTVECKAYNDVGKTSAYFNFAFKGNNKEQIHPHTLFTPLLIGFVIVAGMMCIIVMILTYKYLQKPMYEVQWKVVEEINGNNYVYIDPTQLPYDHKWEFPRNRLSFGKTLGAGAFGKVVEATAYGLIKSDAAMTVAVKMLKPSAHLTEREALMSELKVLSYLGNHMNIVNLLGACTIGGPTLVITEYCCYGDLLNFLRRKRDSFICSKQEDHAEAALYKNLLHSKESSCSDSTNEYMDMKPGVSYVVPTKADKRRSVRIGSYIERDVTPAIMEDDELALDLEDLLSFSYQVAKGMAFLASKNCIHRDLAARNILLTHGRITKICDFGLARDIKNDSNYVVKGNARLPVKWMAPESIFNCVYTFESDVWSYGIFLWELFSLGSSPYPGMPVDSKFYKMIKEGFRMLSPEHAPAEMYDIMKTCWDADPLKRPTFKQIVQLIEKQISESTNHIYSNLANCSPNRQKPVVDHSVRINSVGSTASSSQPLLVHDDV
Series [3] has as its system PI3-kinase p110-alpha/p85-alpha (Homo sapiens), P27986+P42336 [H1047R]. Nature of the series: Inhibition of recombinant full-length human p110a H1047R mutant/p85a at 1 uM using phosphatidylinositol 4,5-bisphosphate as substrate after 40 mins in presence of [gamma-33P]ATP by scintillation counting method. Type of series: protein-complex assay.
The next series concerns Mus musculus. Nature of the series: Oral bioavailability in mouse at 10 mg/kg. The series is classed as ADME, organism-based. As to conditions: in vivo.
Series [4] addresses Tyrosine-protein kinase Lyn (Homo sapiens) (UniProt P07948). Nature of the series: Inhibition of recombinant full-length human Lyn at 1 uM using poly(Glu,Tyr) 4:1 as substrate after 40 mins in presence of [gamma-33P]ATP by scintillation counting method.
Series [5] concerns the target Serine/threonine-protein kinase Sgk1 (Homo sapiens) (UniProt O00141). The experiment in a line: Inhibition of recombinant human SGK (60 to end residues) at 1 uM using GRPRTSSFAEGKK as substrate after 40 mins in presence of [gamma-33P]ATP by scintillation counting method.
Series [6] has as its target Serine/threonine-protein kinase/endoribonuclease IRE1 (Homo sapiens) (UniProt O75460). The experiment in a line: Inhibition of recombinant human IRE1 (465 to end residues) at 1 uM using myelin basic protein as substrate after 40 mins in presence of [gamma-33P]ATP by scintillation counting method.
The target in series [7] is Serine/threonine-protein kinase PAK 5 (Homo sapiens) (UniProt Q9P286). The experiment in a line: Inhibition of recombinant human PAK5 (425 to end residues) at 1 uM using RRRLSFAEPG as substrate after 40 mins in presence of [gamma-33P]ATP by scintillation counting method.
The target of series [8] is Serine/threonine-protein kinase Nek1 (Homo sapiens) (UniProt Q96PY6). Nature of the series: Inhibition of recombinant human NEK1 (1 to 505 residues) at 1 uM using RLGRDKYKTLRQIRQ as substrate after 40 mins in presence of [gamma-33P]ATP by scintillation counting method.
Series [9] deals with Serine/threonine-protein kinase tousled-like 1 (Homo sapiens) (UniProt Q9UKI8). The experiment in a line: Inhibition of recombinant full-length human TLK1 at 1 uM using casein as substrate after 40 mins in presence of [gamma-33P]ATP by scintillation counting method.
Series [10] concerns the target G protein-coupled receptor kinase 5 (Homo sapiens) (UniProt P34947). Nature of the series: Inhibition of recombinant full-length human GRK5 at 1 uM using casein as substrate after 40 mins in presence of [gamma-33P]ATP by scintillation counting method.
Series [11] has as its target Serine/threonine-protein kinase WNK2 (Homo sapiens) (UniProt Q9Y3S1). The experiment in a line: Inhibition of recombinant human WNK2 (166 to 489 residues) at 1 uM using myelin basic protein as substrate after 40 mins in presence of [gamma-33P]ATP by scintillation counting method.
In series [12] the test system is Mitogen-activated protein kinase 14 (Homo sapiens), Q16539 [T106M]. Nature of the series: Inhibition of recombinant full-length human SAPK2a T106M mutant at 1 uM using myelin basic protein as substrate after 40 mins in presence of [gamma-33P]ATP by scintillation counting method.
Series [13] concerns the target NUAK family SNF1-like kinase 1 (Homo sapiens) (UniProt O60285). Nature of the series: Inhibition of recombinant human ARK5 (2 to end residues) at 1 uM using KKKVSRSGLYRSPSMPENLNRPR as substrate after 40 mins in presence of [gamma-33P]ATP by scintillation counting method.
The target in series [14] is Fibroblast growth factor receptor 2 (Homo sapiens) (UniProt P21802). The experiment in a line: Inhibition of recombinant human FGFR2 (456 to 770 residues) at 1 uM using poly(Glu,Tyr) 4:1 as substrate after 40 mins in presence of [gamma-33P]ATP by scintillation counting method.
Chain of Fibroblast growth factor receptor 2 (Homo sapiens) (P21802 22-821 limits assumed): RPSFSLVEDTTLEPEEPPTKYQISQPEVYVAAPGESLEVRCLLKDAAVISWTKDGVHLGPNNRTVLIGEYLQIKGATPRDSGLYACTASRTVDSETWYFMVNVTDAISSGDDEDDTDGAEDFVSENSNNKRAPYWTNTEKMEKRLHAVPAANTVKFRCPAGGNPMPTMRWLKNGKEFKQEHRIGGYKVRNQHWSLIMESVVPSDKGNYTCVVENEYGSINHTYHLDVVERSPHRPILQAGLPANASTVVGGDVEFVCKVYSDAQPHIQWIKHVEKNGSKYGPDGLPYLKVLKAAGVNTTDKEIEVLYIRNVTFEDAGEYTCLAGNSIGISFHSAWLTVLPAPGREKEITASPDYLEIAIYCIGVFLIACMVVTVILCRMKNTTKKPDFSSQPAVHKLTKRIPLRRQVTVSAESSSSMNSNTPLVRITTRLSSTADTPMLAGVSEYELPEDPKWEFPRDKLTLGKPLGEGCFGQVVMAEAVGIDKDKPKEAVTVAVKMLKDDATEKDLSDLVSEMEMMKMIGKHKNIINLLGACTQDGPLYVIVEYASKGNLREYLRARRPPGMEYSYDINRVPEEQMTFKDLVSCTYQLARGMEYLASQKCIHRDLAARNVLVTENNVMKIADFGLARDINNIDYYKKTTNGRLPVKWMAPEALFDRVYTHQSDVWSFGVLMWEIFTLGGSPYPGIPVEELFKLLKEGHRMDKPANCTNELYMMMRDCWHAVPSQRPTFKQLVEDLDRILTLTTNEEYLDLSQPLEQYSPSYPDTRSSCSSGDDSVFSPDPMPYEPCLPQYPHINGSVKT
Series [15] has as its target Mitogen-activated protein kinase kinase kinase 20 (Homo sapiens) (UniProt Q9NYL2). The experiment in a line: Inhibition of recombinant full-length human ZAK at 1 uM using myelin basic protein as substrate after 40 mins in presence of [gamma-33P]ATP by scintillation counting method.
Series [16] deals with 3-phosphoinositide-dependent protein kinase 1 (Homo sapiens) (UniProt O15530). Nature of the series: Inhibition of recombinant human PDK1 (52 to end residues) at 1 uM using KTFCGTPEYLAPEVRREPRILSEEEQEMFRDFDYIADWC (PDKtide) as substrate after 40 mins in presence of [gamma-33P]ATP by scintillation counting method.
Series [17] concerns the target PAS domain-containing serine/threonine-protein kinase (Homo sapiens) (UniProt Q96RG2). The experiment in a line: Inhibition of recombinant human PASK (995 to end residues) at 1 uM using KKLNRTLSFAEPG as substrate after 40 mins in presence of [gamma-33P]ATP by scintillation counting method.
Series [18] addresses Tyrosine-protein kinase ABL1 (Mus musculus) (UniProt P00520). The experiment in a line: Inhibition of recombinant mouse Abl (27 to end residues) at 1 uM using EAIYAAPFAKKK as substrate after 40 mins in presence of [gamma-33P]ATP by scintillation counting method.
The subject of series [19] is Mast/stem cell growth factor receptor Kit (Homo sapiens), P10721 [V654A]. The experiment in a line: Inhibition of recombinant human cKit V654A mutant (544 to end residues) at 1 uM using GGMEDIYFEFMGGKKK as substrate after 40 mins in presence of [gamma-33P]ATP by scintillation counting method.
The target in series [20] is MAP kinase-interacting serine/threonine-protein kinase 2 (Homo sapiens) (UniProt Q9HBH9). Nature of the series: Inhibition of recombinant full-length human Mnk2 at 1 uM using myelin basic protein as substrate after 40 mins in presence of [gamma-33P]ATP by scintillation counting method.
In series [21] the target is Mitogen-activated protein kinase kinase kinase 2 (Homo sapiens) (UniProt Q9Y2U5). Nature of the series: Inhibition of recombinant full-length human MEKK2 at 1 uM using myelin basic protein as substrate after 40 mins in presence of [gamma-33P]ATP by scintillation counting method.
For series [22], the target named is Vascular endothelial growth factor receptor 2 (Homo sapiens) (UniProt P35968). Nature of the series: Inhibition of recombinant human KDR (790 to end residues) at 1 uM using myelin basic protein as substrate after 40 mins in presence of [gamma-33P]ATP by scintillation counting method.
Chain of Vascular endothelial growth factor receptor 2 (Homo sapiens) (P35968 whole entry): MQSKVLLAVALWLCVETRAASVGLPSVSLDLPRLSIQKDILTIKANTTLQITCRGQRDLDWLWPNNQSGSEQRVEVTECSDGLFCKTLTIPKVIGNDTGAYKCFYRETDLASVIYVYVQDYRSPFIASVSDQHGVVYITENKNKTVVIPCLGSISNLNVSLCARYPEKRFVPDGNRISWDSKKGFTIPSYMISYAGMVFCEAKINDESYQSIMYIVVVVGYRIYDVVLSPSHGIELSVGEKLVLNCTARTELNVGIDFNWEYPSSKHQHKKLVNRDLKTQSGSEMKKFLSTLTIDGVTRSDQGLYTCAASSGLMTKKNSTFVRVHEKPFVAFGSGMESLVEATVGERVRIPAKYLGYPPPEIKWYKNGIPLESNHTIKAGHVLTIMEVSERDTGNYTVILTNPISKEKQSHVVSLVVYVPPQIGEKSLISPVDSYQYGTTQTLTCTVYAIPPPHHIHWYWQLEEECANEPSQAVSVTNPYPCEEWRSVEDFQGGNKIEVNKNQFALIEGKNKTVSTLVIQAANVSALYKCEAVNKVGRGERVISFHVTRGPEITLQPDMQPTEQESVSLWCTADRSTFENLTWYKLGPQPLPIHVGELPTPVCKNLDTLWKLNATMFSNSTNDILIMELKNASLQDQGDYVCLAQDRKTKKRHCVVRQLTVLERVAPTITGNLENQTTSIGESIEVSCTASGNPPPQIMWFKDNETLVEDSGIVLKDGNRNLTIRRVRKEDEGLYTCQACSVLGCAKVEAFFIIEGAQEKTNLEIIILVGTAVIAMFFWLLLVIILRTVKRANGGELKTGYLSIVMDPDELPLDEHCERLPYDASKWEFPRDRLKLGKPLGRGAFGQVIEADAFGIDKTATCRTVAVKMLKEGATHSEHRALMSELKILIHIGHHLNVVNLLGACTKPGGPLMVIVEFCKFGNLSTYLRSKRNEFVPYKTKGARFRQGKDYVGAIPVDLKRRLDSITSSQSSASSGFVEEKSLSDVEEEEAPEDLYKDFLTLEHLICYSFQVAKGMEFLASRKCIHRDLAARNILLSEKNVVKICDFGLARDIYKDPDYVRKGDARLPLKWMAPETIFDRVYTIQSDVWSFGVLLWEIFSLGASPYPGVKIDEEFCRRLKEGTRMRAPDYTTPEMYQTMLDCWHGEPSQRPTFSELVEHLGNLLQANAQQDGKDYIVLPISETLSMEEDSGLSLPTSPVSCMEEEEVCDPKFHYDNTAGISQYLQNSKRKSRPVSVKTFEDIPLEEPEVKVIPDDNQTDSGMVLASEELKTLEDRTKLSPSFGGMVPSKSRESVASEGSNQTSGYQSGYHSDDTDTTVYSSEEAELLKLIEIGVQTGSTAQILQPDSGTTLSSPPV
In series [23] the target is Macrophage colony-stimulating factor 1 receptor (Homo sapiens) (UniProt P07333). Nature of the series: Inhibition of recombinant human Fms (538 to end residues) at 1 uM using KKKSPGEYVNIEFG as substrate after 40 mins in presence of [gamma-33P]ATP by scintillation counting method.

Chain of PAS domain-containing serine/threonine-protein kinase (Homo sapiens) (Q96RG2 whole entry, the tested form may be a part): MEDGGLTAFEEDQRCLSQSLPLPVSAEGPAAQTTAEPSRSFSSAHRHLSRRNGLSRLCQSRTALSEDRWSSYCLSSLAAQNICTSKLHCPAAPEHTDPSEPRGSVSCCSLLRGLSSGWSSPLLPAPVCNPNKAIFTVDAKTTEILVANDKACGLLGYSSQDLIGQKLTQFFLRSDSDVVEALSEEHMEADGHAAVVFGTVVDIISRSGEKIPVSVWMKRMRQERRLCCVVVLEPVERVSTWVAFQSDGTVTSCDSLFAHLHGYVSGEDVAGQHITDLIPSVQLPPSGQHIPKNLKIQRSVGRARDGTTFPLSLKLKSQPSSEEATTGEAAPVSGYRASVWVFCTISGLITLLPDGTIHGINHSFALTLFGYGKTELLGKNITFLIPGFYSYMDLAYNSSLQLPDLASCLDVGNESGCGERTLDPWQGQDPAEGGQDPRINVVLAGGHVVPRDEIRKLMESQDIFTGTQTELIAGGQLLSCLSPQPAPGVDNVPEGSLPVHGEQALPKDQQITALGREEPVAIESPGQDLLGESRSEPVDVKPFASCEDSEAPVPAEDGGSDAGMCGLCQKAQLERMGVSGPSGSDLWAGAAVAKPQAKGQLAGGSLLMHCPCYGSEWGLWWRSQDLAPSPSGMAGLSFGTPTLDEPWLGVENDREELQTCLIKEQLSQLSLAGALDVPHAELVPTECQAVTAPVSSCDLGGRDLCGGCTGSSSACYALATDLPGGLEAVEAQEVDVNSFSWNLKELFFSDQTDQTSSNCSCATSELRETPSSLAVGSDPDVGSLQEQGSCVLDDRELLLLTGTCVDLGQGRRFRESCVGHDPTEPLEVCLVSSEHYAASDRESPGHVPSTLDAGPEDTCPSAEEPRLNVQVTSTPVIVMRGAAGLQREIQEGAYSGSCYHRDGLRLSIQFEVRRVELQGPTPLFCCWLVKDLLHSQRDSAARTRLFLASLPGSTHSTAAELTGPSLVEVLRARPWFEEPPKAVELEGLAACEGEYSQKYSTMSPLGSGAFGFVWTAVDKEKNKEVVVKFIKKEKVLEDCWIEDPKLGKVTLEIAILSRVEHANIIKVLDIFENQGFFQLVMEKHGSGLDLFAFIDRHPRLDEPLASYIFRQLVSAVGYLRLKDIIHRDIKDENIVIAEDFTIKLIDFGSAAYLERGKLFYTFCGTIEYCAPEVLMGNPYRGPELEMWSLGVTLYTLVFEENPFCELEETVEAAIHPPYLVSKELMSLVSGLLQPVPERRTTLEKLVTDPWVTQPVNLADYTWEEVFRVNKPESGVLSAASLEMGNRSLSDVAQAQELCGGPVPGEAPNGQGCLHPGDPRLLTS
Chain of Mast/stem cell growth factor receptor Kit (Homo sapiens), P10721 [V654A] (P10721 whole entry V654A): as the sequence (P10721 whole entry) above, with V654A counted along it

`CS(=O)(=O)c1ccc(-n2nc(-c3cnc4[nH]ccc4c3)c3c(N)ncnc32)cc1`: the inhibition came to 18% in series [1]; 4% in series [2]; 16% in series [3]; 40% in series [4]; 2% in series [5]; 2% in series [6]. For the same compound, the inhibition in series [7] was 20%; in series [8], -4%; in [9] it was 3%; in [10], -1%; in series [11] it was 23%; in series [12], 0%. The inhibition in [13] is 15%; in series [14], 17%; in series [15], 17%; in series [16] it was -6%; in series [17], -6%; in series [18], 85%. In addition, the inhibition in [19] was 30%; in series [20], -6%; in series [21], 5%; in series [22], 72%; in [23], 76%. The compound also registered a F in the series with Mus musculus of 2.83%.
